Results taken from PMC9192788, “Identification of a D-galacturonate reductase efficiently using NADH as a cofactor” (Biotechnology Reports, 2022).

Key:
[1] = system: T1, Gaa1 (E. gracilis D-galacturonate reductase); assay: NAD(P)H oxidation, absorbance at […] nm; type: biochemical, Euglena gracilis; conditions: 1 mM NADPH, 0.1 M Na-phosphate pH 7, 30°C
T1 construct: full-length 420 aa, C-terminal 6xHis tag kept, synthetic codon-optimized gene expressed in S. cerevisiae, IMAC purified, ~45 kDa; primer-encoded N-terminus MVDVLMVGT

[2] = system: T1, Gaa1 (E. gracilis D-galacturonate reductase); assay: reverse reaction with NADP; type: biochemical, Euglena gracilis; conditions: 1 mM NADP, 0.1 M Na-phosphate pH 7, 30°C
Text: reverse reaction with NADP on Gaa1 (E. gracilis D-galacturonate reductase)

Row | Km [1] [µM] | Km [2] [µM] | SMILES
1 | 300 |  | O=C(O)[C@H]1OC(O)[C@H](O)[C@@H](O)[C@H]1O (stereo partly drawn) [GalUA, D-galacturonate]
2 |  | 700 | O=C(O)[C@@H](O)[C@H](O)[C@H](O)[C@@H](O)CO [L-galA, L-galactonate]
